The viability is a read-out of living cells in per cent, often relative to untreated cells.

This data set is described as follows: in vitro. The note with it: human, hela cells, % viability.

`Cc1cccc(C(=O)N2CCCCC2C)c1` (stereo not shown) [CBK074052]: the viability at 28.5 h, 10 µM turned out to be 118%.

`CCCc1c(Cc2c(Cl)cccc2Cl)c(=O)n(C)n1C` [CBK115466]: the viability at 28.5 h, 10 µM turned out to be 93%. For `CCN(C)Cc1cccc(CNc2ncnc3c2cnn3CCC#N)c1` [CBK305959], the viability at 28.5 h, 10 µM came out at 92.2%.

In the case of `CN(C)CCN1CCN(c2cc(Nc3ccc(N(C)C)cc3)nc3ccnn23)CC1` [CBK037211], the viability at 28.5 h, 10 µM amounted to 93.4%.

With `COc1ccc(CCNC(=O)CN2CCCC2Cn2cncn2)cc1` (stereo not shown) [CBK304567], the viability at 28.5 h, 10 µM is 115%.

Take `CN(C)S(=O)(=O)c1cccc(C(=O)NCCc2ccccc2)c1` [CBK267793]: the viability at 28.5 h, 10 µM is 91.3%.

As to `CN(CCN1CCCCC1)C(=O)C1Cc2cc(Cl)ccc2O1` (stereo not shown) [CBK282640], the viability at 28.5 h, 10 µM came out at 95.4%. As to `CCn1cnc2cc(NC(=O)c3ccc(C)n(C)c3=O)ccc21` [CBK281402], the viability at 28.5 h, 10 µM came out at 106%. Consider `O=C(O)Cn1c2ccccc2c2cc([N+](=O)[O-])ccc21` [CBK261732], for which the viability at 28.5 h, 10 µM worked out at 82.6%. Take `CC(C)(c1ccccc1)c1ccc(OCCOc2ccc(/C=C3\SC(=S)NC3=O)cc2)cc1` [CBK264378]: the viability at 28.5 h, 10 µM worked out at 91%. Turning to `CS(=O)(=O)Nc1ccccc1C(=O)NCCCN1CCOCC1` [CBK269745], the viability at 28.5 h, 10 µM was found to be 112%. For `Nc1ccccc1-c1ccccc1NC(=O)C(=O)O` [CBK266824], the viability at 28.5 h, 10 µM worked out at 110%. `O=C(c1c(-c2ccccc2)nnc2ccccc12)N1CCN(CCO)CC1` [CBK066882]: the viability at 28.5 h, 10 µM amounted to 87.3%.

Turning to `COc1cc2c(cc1OC)C(C)N(C(=O)Nc1ccc3c(c1)OCCO3)CC2` (stereo not shown) [CBK086204], the viability at 28.5 h, 10 µM came out at 94.8%. As for `Cc1ccc(-c2csc(NC(=O)CS(=O)(=O)c3ccccc3)n2)cc1` [CBK287707], the viability at 28.5 h, 10 µM came out at 89.2%. Still for that read-out and setting: for `c1ccc(Oc2cccc(CN3CCC(N4CCN(c5ccccc5)CC4)CC3)c2)cc1` [CBK264662G] the value was 88%. As for `CCN(CC1CCN(C)C1)C(=O)c1cc(COc2cccc(F)c2)[nH]n1` (stereo not shown) [CBK307239], the viability at 28.5 h, 10 µM came out at 88.8%.

Regarding `COc1ccc(OC)c(-c2cc(C(=O)O)c(C)o2)c1` [CBK049343], the viability at 28.5 h, 10 µM is 97.9%. Still for that read-out and setting: for `O=C(Nc1ccccc1C(=O)Nc1ccccc1C(=O)O)c1ccccc1` [CBK261551] the value was 91.1%; for `CCN1CCCC1CNC(=O)c1cc(Br)cnc1N(C)S(C)(=O)=O` (stereo not shown) [CBK076520], 93.5%. Take `COc1ccc2[nH]cc(CCNC(=O)N3CCCC(C(=O)O)C3)c2c1` (stereo not shown) [CBK161351]: the viability at 28.5 h, 10 µM was 108%.

Regarding `COc1ccccc1CNCc1ccc(CNC(=O)OC(C)(C)C)cc1` [CBK056702], the viability at 28.5 h, 10 µM stood at 100%. As to `CC1(C)CC(=O)C=C(C(=O)NCc2cccs2)O1` [CBK153292], the viability at 28.5 h, 10 µM is 97.5%.

Regarding `CCCN(CC1CCCO1)C(=O)c1cnn(-c2ccc(F)cc2)c1` (stereo not shown) [CBK283317], the viability at 28.5 h, 10 µM worked out at 89.7%. Turning to `O=C(O)COc1ccccc1/C=C1\C(=O)NC(=O)N(c2ccc(OCc3ccccc3)cc2)C1=O` [CBK265419], for the setting “bulk resorufin, single well”, the viability at 28.5 h, 10 µM is 114%. Consider `CCCC(=O)N1CCn2c(nnc2-c2cncc(Br)c2)C1` [CBK304761], for which the viability at 28.5 h, 10 µM came to 93.4%. Still for that read-out and setting: then `C#CCN(C)CC[C@@H]1CC[C@H](O)[C@@H](C(=O)NC(C)C)O1` [CBK288718], with 109%; and `CCCC/C=C/c1cnc2[nH]c(=O)n(CCCOC)c2n1` [CBK064540], with 109%. With `O=C(O)c1cccc(-c2nccnc2NCC2CC2)c1` [CBK038043], the viability at 28.5 h, 10 µM worked out at 95.5%. Regarding `O=C(N[C@H]1CCN2C(=O)N(CCCl)C(=O)[C@@H]2C1)c1ccncc1` [CBK289551], the viability at 28.5 h, 10 µM (bulk resorufin, single well) came out at 88.3%. In the case of `COc1cccc2cc(C(=O)N3CCN(C4CCN(C)CC4)CC3)oc12` [CBK149086], the viability at 28.5 h, 10 µM was 91.2%. Same read-out and setting: then `COc1ccc(S(=O)(=O)NCCN2CCOCC2)c(Cl)c1Cl` [CBK269999], with 95%; and `CCn1c(C)nc2cc(NC(=O)Cn3cnc4ccccc43)ccc21` [CBK281832], with 94.1%; and `NS(=O)(=O)c1ccc(CCNc2ncnc3c2c(-c2ccccc2)cn3-c2ccc(F)cc2)cc1` [CBK266478], with 92%.

On to `Cc1cccc(=O)n1CCC(=O)N1CCCCC1CN1CCOCC1` (stereo not shown) [CBK306528], for which the viability at 28.5 h, 10 µM was 109%. Consider `COc1ccc(C(=O)Nc2ccc(CC(=O)O)cc2)cc1` [CBK269736], for which the viability at 28.5 h, 10 µM was 95%. For `Cc1ccccc1Cc1cccc(C2CCN(S(=O)(=O)c3cn[nH]c3)CC2)n1` [CBK286125], the viability at 28.5 h, 10 µM turned out to be 90.8%.

Consider `CCCn1c(=O)c(Cc2ccccc2)c(O)c2ccccc21` [CBK291175], for which the viability at 28.5 h, 10 µM was determined as 89.3%. `COC(=O)[C@@H]1Cc2ncn(C(C)C)c2CN1S(=O)(=O)c1ccc(C#N)cc1` [CBK288986]: the viability at 28.5 h, 10 µM was 84%. On the same count and under the same terms, for `Fc1ccccc1-c1cn2ccnc2c(NCCc2cccnc2)n1` [CBK037473] the value was 88.1%; for `Fc1ccc(NC(=S)NNC(=S)Nc2cccc3ccccc23)c(F)c1` [CBK266982], 89.8%. As for `O=C(O)CCc1ccc(-c2ccccc2)n1CC1CCCO1` (stereo not shown) [CBK267955], the viability at 28.5 h, 10 µM stood at 102%.

For the compound `Cc1cccc(-c2n[nH]c(=S)n2CCC(=O)Nc2ccc(N3CCCC3=O)c(C)c2)c1` [CBK296733], the viability at 28.5 h, 10 µM was found to be 89.1%. Turning to `Nc1nonc1-c1noc(-c2cccc(Cl)c2)n1` [CBK026691], the viability at 28.5 h, 10 µM amounted to 90.2%.

With `CC1CN(S(=O)(=O)c2ccc(NC(=O)C3CC(=O)Nc4cc(F)ccc43)cc2)CC(C)O1` (stereo not shown) [CBK297933], the viability at 28.5 h, 10 µM was found to be 91.4%. As to `CC(=O)NCc1cccc(-c2cc(C(=O)O)cnc2-c2ccc(Cl)cc2)c1` [CBK156194], the viability at 28.5 h, 10 µM worked out at 90.9%. For `CCCn1c(SC(C)C(=O)N2CCOCC2)nc2ccc(Br)cc2c1=O` (stereo not shown) [CBK305020], the viability at 28.5 h, 10 µM stood at 92.2%.

On to `Cc1ccc(NC(=O)Nc2ccc(F)cc2)cc1S(=O)(=O)N(C)C` [CBK269482], for which the viability at 28.5 h, 10 µM is 92.8%. For `NC(=O)CC1C=CS(=O)(=O)C1` (stereo not shown) [CBK019653], the viability at 28.5 h, 10 µM amounted to 76.7%. On to `Cc1ccc(O)c(NC(=O)c2cccc(S(=O)(=O)N3CCCCC3)c2)c1` [CBK267790], for which the viability at 28.5 h, 10 µM was determined as 83.3%. Take `CCOc1ccccc1NC(=O)CNS(=O)(=O)c1ccccc1` [CBK265860]: the viability at 28.5 h, 10 µM was 86.9%.

As for `COC(=O)c1cc(OC)c(OC)cc1NC(=S)N1CCC(C(N)=O)CC1` [CBK268507], the viability at 28.5 h, 10 µM came out at 93.3%.

With `Cc1ncc2c(n1)[C@@H]1CN(C(=O)Cc3cccs3)C[C@@H]1CC2` [CBK284491], the viability at 28.5 h, 10 µM was 89.3%. With `Cc1ccc(CN2CC[C@H]3NC(=O)c4ccccc4OCC/C=C/C[C@H]3C2)cn1` [CBK292056], the viability at 28.5 h, 10 µM worked out at 98.6%. Take `O=C(CCc1c[nH]c2ccccc12)Nc1ccccc1C(=O)O` [CBK287242]: the viability at 28.5 h, 10 µM came out at 108%.

With `O=C(NCC1(c2ccccc2)CCC1)C1CCCN(C(=O)c2ccoc2)C1` (stereo not shown) [CBK296670], the viability at 28.5 h, 10 µM amounted to 85.6%. Same read-out and setting: then `CC(C)=C(NC(=O)c1ccccc1)C(=O)Nc1cccc(C(=O)O)c1` [CBK058180], with 105%. As for `CCOC(=O)CN1N=C(C)C(Cc2c(Cl)cccc2Cl)(OC)C1=O` (stereo not shown) [CBK112646], the viability at 28.5 h, 10 µM worked out at 98.1%.

These data come from publication PMC12040169 (PLOS Biology, 2025).
